The values that follow come from PubChem BioAssay (NCI).

Some test systems named below: M14 melanoma; CAKI-1 renal; OVCAR-8 ovarian; SK-OV-3 ovarian; SF-268 CNS; SN12C renal; NCI-H460 lung; EKVX NSCLC; A549 NSCLC.
What all share (assay): NCI-60 cell line screen, 48 h

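1) Cells in 96-well plates. 2) Compound, 48 h, 5 concentrations. 3) Linear interpolation between surrounding doses. 4) Unreached endpoint = highest concentration. GI50: concentration for 50% inhibition of growth. TGI is the concentration that stops growth completely.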

For the compound `COc1ccccc1CNC(=O)C1c2ccccc2C(=O)N(CC(C)C)C1c1cccs1` (configuration not stated), the GI50 was 19.1 µM in the test with M14 melanoma; 18.1 µM in the test with CAKI-1 renal; 23.6 µM with OVCAR-8 ovarian; 36.9 µM in the test with SK-OV-3 ovarian; 30.6 µM in the test with SF-268 CNS; 35 µM with SN12C renal. Besides, the GI50 in the test with NCI-H460 lung was 18.1 µM. For the same compound, the TGI with M14 melanoma was 52.7 µM; in the test with CAKI-1 renal, 78.8 µM; with OVCAR-8 ovarian, greater than 100 µM; in the test with SK-OV-3 ovarian it was greater than 100 µM; in the test on SF-268 CNS, greater than 100 µM; with SN12C renal, greater than 100 µM. Besides, the TGI in the test on NCI-H460 lung turned out to be 46.9 µM.
Consider `O=C(O)C(Br)C(Br)c1ccccc1[N+](=O)[O-]` (configuration not stated), for which the TGI with M14 melanoma, in the test on CAKI-1 renal, with OVCAR-8 ovarian, in the test with SK-OV-3 ovarian, in the test with EKVX NSCLC and in the test on A549 NSCLC was greater than 100 µM each time. Also, the TGI in the test with SF-268 CNS, in the test on SN12C renal and in the test on NCI-H460 lung was greater than 100 µM throughout.
Regarding `O=C(NCCN1CCOCC1)Nc1ccc(-c2cc3c(Nc4ccc(Oc5cccc(C(F)(F)F)c5)c(Cl)c4)ncnc3s2)cc1`, the GI50 was 1.16 µM in the test with M14 melanoma; 1.5 µM in the test with CAKI-1 renal; 2.4 µM with OVCAR-8 ovarian; 1.88 µM in the test with SK-OV-3 ovarian; 2.27 µM with EKVX NSCLC; 1.04 µM in the test with A549 NSCLC. Besides, the GI50 with SF-268 CNS is 1.76 µM; with SN12C renal it was 1.97 µM; with NCI-H460 lung, 1.12 µM. Further, the TGI in the test with M14 melanoma was 3.24 µM; in the test with CAKI-1 renal it was 5.74 µM; with OVCAR-8 ovarian, 9.88 µM; with SK-OV-3 ovarian, 7.49 µM; in the test on EKVX NSCLC it was 8.61 µM; with A549 NSCLC, 2.42 µM. Further, the TGI in the test with SF-268 CNS amounted to 7.51 µM; with SN12C renal, 8.21 µM; in the test on NCI-H460 lung, 2.54 µM.
`Cc1ccc(S(=O)(=O)NC(CCC(=O)Nc2ccccc2)C(=O)Nc2ccccc2)cc1` (configuration not stated): the GI50 with M14 melanoma was 0.404 µM; with OVCAR-8 ovarian, 0.5 µM; in the test on SK-OV-3 ovarian, 0.47 µM; in the test with EKVX NSCLC, 0.401 µM; in the test on A549 NSCLC, 0.319 µM. The TGI stood at 3.62 µM in the test on M14 melanoma; 2.57 µM with OVCAR-8 ovarian; 2.39 µM in the test with SK-OV-3 ovarian; 2.3 µM in the test on EKVX NSCLC; 1.76 µM in the test on A549 NSCLC.
With `O=C(O)c1ccc(N=Nc2cc(S(=O)(=O)O)c3cccnc3c2O)cc1`, the TGI with CAKI-1 renal, in the test with OVCAR-8 ovarian, in the test with SK-OV-3 ovarian, with EKVX NSCLC, in the test on A549 NSCLC and in the test on SF-268 CNS was greater than 100 µM each time. Besides, the TGI in the test on SN12C renal and with NCI-H460 lung was greater than 100 µM in each case.
Consider `CCN(CC)CCCCCOc1cc(O)c2c(=O)cc(-c3ccccc3)oc2c1`, for which the GI50 is 1.71 µM in the test on M14 melanoma; 11.5 µM in the test on OVCAR-8 ovarian; 6.95 µM in the test with SK-OV-3 ovarian; 6.93 µM with EKVX NSCLC; 5.26 µM with A549 NSCLC; 7.82 µM in the test on SF-268 CNS. In addition, the GI50 was 4.78 µM in the test on SN12C renal and 2.24 µM in the test on NCI-H460 lung. The TGI in the test on M14 melanoma turned out to be 3.1 µM; in the test on OVCAR-8 ovarian, 25.5 µM; in the test with SK-OV-3 ovarian, 17.8 µM; in the test on EKVX NSCLC it was 23.6 µM; in the test with A549 NSCLC it was 18.5 µM; in the test with SF-268 CNS it was 25.5 µM. Also, the figures for the TGI in the test with SN12C renal and in the test on NCI-H460 lung were 17 µM and 5.48 µM, respectively.
Turning to `CCOC(=O)C1=C(NC(C)(C)C)OCC1=O`, the TGI in the test with M14 melanoma, in the test on CAKI-1 renal, in the test on OVCAR-8 ovarian, with SK-OV-3 ovarian, in the test with A549 NSCLC and in the test on SF-268 CNS was greater than 100 µM each time. The TGI with SN12C renal and in the test with NCI-H460 lung was greater than 100 µM each time.
With `COc1ccc(NC(=O)Nc2ccc(Nc3nc(C)cc(Nc4ccc(C)cc4)n3)cc2)cc1`, the GI50 with M14 melanoma is 1.77 µM; with SK-OV-3 ovarian, 2.46 µM; in the test on EKVX NSCLC it was 2.03 µM; with SF-268 CNS, 2.16 µM; with SN12C renal it was 1.88 µM. The TGI with M14 melanoma came to 3.72 µM; in the test on SK-OV-3 ovarian it was 6.59 µM; in the test with EKVX NSCLC, 4.42 µM; in the test with SF-268 CNS, 5.07 µM; with SN12C renal it was 3.86 µM.
As to `O=C(CCC(=O)N/N=C/c1ccccc1O)N/N=C/c1ccccc1O`, the TGI with CAKI-1 renal was greater than 100 µM; in the test with OVCAR-8 ovarian, greater than 100 µM; with SK-OV-3 ovarian, 37.2 µM; in the test with EKVX NSCLC, 56.4 µM; in the test on A549 NSCLC it was greater than 100 µM; in the test on SF-268 CNS, 52.4 µM. In addition, in the test on SN12C renal, the TGI was greater than 100 µM.
As for `CCc1ccc(/C(C)=N/NC(N)=S)cc1`, the TGI in the test on M14 melanoma, in the test with CAKI-1 renal, in the test with OVCAR-8 ovarian, in the test with SK-OV-3 ovarian, in the test with EKVX NSCLC and in the test on A549 NSCLC was greater than 100 µM in each case. In the test on SF-268 CNS, this compound registered a TGI greater than 100 µM.
